Measurements published in US20170143712A1, “Methods of Treating Cancers, Immune and Autoimmune Diseases, and Inflammatory Diseases Based on BTK Occupancy and BTK Resynthesis Rate” (Acerta Pharma B.V., priority 2014, published 2017).

What was measured:
ID8 ovarian cancer = test: ID8 syngeneic orthotropic ovarian cancer murine model; format: in vivo, mouse; settings: 15 mg/kg/BID orally vs vehicle
Text: The ID8 syngeneic orthotropic ovarian cancer murine model was used to investigate the therapeutic efficacy of the BTK inhibitor of Formula (II) through treatment of the solid tumor microenvironment. Human ovarian cancer models, including the ID8 syngeneic orthotropic ovarian cancer model and other animal models, are described in Fong and Kakar, J. Ovarian Res. 2009, 2, 12; Greenaway, et al., Gynecol. Oncol. 2008, 108, 385-94; Urzua, et al., Tumour Biol. 2005, 26, 236-44; Janat-Amsbury, et al., Anticancer Res. 2006, 26, 3223-28; Janat-Amsbury, et al., Anticancer Res. 2006, 26, 2785-89. Animals were treated with vehicle or Formula (II), 15 mg/kg/BID given orally. The results of the study are shown in FIG. 35A, FIG. 35B, FIG. 36, FIG. 37, FIG. 38A, FIG. 38B, FIG. 39A, and FIG. 39B.

[1] = system: established type II collagen-induced arthritis (CIA) in DBA/1 mice; test: 14-day mouse established type II collagen-induced arthritis (CIA), PO QD (Example 10); format: in vivo; settings: for AUC (All Paws) - Corrected for Initial Score / Change in Body Weight (g) / Histopathology Summed Score Knees / Histopathology Summed Score Paws / Histopathology Summed Score Six-Joints / Paw Score AUC (All Paws): mean(SE); for disease-induced body weight loss (percent change from baseline) vs vehicle controls / arthritis scores measured daily vs vehicle controls: p<0.05 on the days printed
[2] = 5 mg/kg PO QD, therapeutic paws only
[3] = 25 mg/kg PO QD, therapeutic paws only

CC#CC(=O)N1CCC[C@H]1c1nc(-c2ccc(C(=O)Nc3ccccn3)cc2)c2c(N)nccn12 [Formula (II), (S)-4-(8-amino-3-(1-(but-2-ynoyl)pyrrolidin-2-yl)imidazo[1,5-a]pyrazin-1-yl)-N-(pyridin-2-yl)benzamide]
CD8+ T cells (ID8 ovarian cancer): increase | ID8 ovarian cancer growth (ID8 ovarian cancer): impairs ID8 ovarian cancer growth | immunosuppressive B cells in tumor-bearing mice (ID8 ovarian cancer): significant reduction | immunosuppressive tumor associated Tregs (ID8 ovarian cancer): significant reduction | immunosuppressive tumor-associated lymphocytes (ID8 ovarian cancer): significant reduction | AUC (All Paws) - Corrected for Initial Score ([1]; 1 mg/kg PO QD): 14.99(3.62) | Change in Body Weight (g) ([1]; 1 mg/kg PO QD): −0.36(0.77) g | Histopathology Summed Score Knees ([1]; 1 mg/kg PO QD): 4.90(1.32) | Histopathology Summed Score Paws ([1]; 1 mg/kg PO QD): 7.95(1.54) | Histopathology Summed Score Six-Joints ([1]; 1 mg/kg PO QD): 6.93(1.22) | Paw Score AUC (All Paws) ([1]; 1 mg/kg PO QD): 22.14(4.11) | disease-induced body weight loss (percent change from baseline) vs vehicle controls ([1]; 1 mg/kg PO QD): significantly inhibited toward normal | daily arthritis scores vs vehicle controls ([1]; 1 mg/kg PO QD, prophylactic paws): significantly reduced toward normal | knee histopathology parameters ([1]; 1 mg/kg, compared to 1 mg/kg ibrutinib): significantly improved | six-joint histopathology, reduction of summed scores vs vehicle controls ([1]; 5 mg/kg PO QD): 86% | total body weight loss from enrollment to study termination ([1]; 5 mg/kg PO QD): significantly inhibited | Clinical arthritis scores AUC, reduction vs vehicle controls ([1]; 5 mg/kg PO QD, all paws): 82% | Clinical arthritis scores AUC, reduction when corrected for initial enrollment score ([1]; 5 mg/kg PO QD, all paws): 99% | arthritis scores measured daily vs vehicle controls ([1]; 5 mg/kg PO QD, all paws): significantly reduced toward normal | AUC (All Paws) - Corrected for Initial Score ([1]; 5 mg/kg PO QD): *0.43(2.76) | Change in Body Weight (g) ([1]; 5 mg/kg PO QD): *1.23(0.52) g | Histopathology Summed Score Knees ([1]; 5 mg/kg PO QD): *1.48(0.94) | Histopathology Summed Score Paws ([1]; 5 mg/kg PO QD): *2.23(0.72) | Histopathology Summed Score Six-Joints ([1]; 5 mg/kg PO QD): *1.98(0.69) | Paw Score AUC (All Paws) ([1]; 5 mg/kg PO QD): *7.58(2.63) | disease-induced body weight loss (percent change from baseline) vs vehicle controls ([1]; 5 mg/kg PO QD): significantly inhibited toward normal | daily arthritis scores vs vehicle controls ([1]; 5 mg/kg PO QD, prophylactic paws): significantly reduced toward normal | Clinical arthritis scores AUC, reduction vs vehicle controls ([1]; 5 mg/kg PO QD, prophylactic paws only): 94% | daily arthritis scores vs vehicle controls ([1]; 5 mg/kg PO QD, therapeutic paws): significantly reduced toward normal | Clinical arthritis scores AUC, reduction vs vehicle controls [1, 2]: 64% | Clinical arthritis scores AUC, reduction when corrected for initial enrollment score [1, 2]: 110% | six-joint histopathology, reduction of summed scores vs vehicle controls ([1]; 25 mg/kg PO QD): 93% | total body weight loss from enrollment to study termination ([1]; 25 mg/kg PO QD): significantly inhibited | Clinical arthritis scores AUC, reduction vs vehicle controls ([1]; 25 mg/kg PO QD, all paws): 95% | Clinical arthritis scores AUC, reduction when corrected for initial enrollment score ([1]; 25 mg/kg PO QD, all paws): 115% | arthritis scores measured daily vs vehicle controls ([1]; 25 mg/kg PO QD, all paws): significantly reduced toward normal | AUC (All Paws) - Corrected for Initial Score ([1]; 25 mg/kg PO QD): *−5.24(1.36) | Change in Body Weight (g) ([1]; 25 mg/kg PO QD): *1.01(0.66) g | Histopathology Summed Score Knees ([1]; 25 mg/kg PO QD): *1.25(0.43) | Histopathology Summed Score Paws ([1]; 25 mg/kg PO QD): *0.94(0.40) | Histopathology Summed Score Six-Joints ([1]; 25 mg/kg PO QD): *1.04(0.36) | Paw Score AUC (All Paws) ([1]; 25 mg/kg PO QD): *1.91(0.96) | disease-induced body weight loss (percent change from baseline) vs vehicle controls ([1]; 25 mg/kg PO QD): significantly inhibited toward normal | daily arthritis scores vs vehicle controls ([1]; 25 mg/kg PO QD, prophylactic paws): significantly reduced toward normal | Clinical arthritis scores AUC, reduction vs vehicle controls ([1]; 25 mg/kg PO QD, prophylactic paws only): 100% | daily arthritis scores vs vehicle controls ([1]; 25 mg/kg PO QD, therapeutic paws): significantly reduced toward normal | Clinical arthritis scores AUC, reduction vs vehicle controls [1, 3]: 89% | Clinical arthritis scores AUC, reduction when corrected for initial enrollment score [1, 3]: 152% | spleen weights compared to vehicle controls ([1]; all dose groups PO QD): not significantly affected
